From US6498125B2, “Pyridine ketones useful as herbicides” (Syngenta Participations AG, priority 1998, dated 2002)

Assays:
Format in all cases: in vivo
[1] = test system: Chenopodium; test: Example B3: pre-emergence action, 250 g/ha; settings: 250 g of AS/ha, sprayed immediately after sowing, 3 weeks, nine-level scale 1=complete damage, 9=no effect
Experimental: (§1) Monocotyledonous and dicotyledonous test plants are sown in pots in standard soil. Immediately after sowing, the test substances are sprayed on (500 l of spray liquorlha) as an aqueous suspension, prepared from a wettable powder WP10 corresponding to the desired dosage (250 g of a.i./ha).
(§2) The test plants are then grown under optimum conditions in a greenhouse. After a test period of 3 weeks, the test is evaluated with a nine -evel scale of ratings (1=complete damage, 9=no effect). Ratings of 1 to 4 (in particular 1 to 3) mean good to very good herbicidal action, 7-9 mean good tolerance.

[2] = test system: Sida; test: Example B3: pre-emergence action, 250 g/ha; settings: 250 g of AS/ha, sprayed immediately after sowing, 3 weeks, nine-level scale 1=complete damage, 9=no effect
Experimental: as §1, §2

[3] = test system: Abutilon; test: Example B3: pre-emergence action, 250 g/ha; settings: 250 g of AS/ha, sprayed immediately after sowing, 3 weeks, nine-level scale 1=complete damage, 9=no effect
Experimental: as §1, §2

[4] = test system: Stellaria; test: Example B3: pre-emergence action, 250 g/ha; settings: 250 g of AS/ha, sprayed immediately after sowing, 3 weeks, nine-level scale 1=complete damage, 9=no effect
Experimental: as §1, §2

[5] = test system: Kochia; test: Example B3: pre-emergence action, 250 g/ha; settings: 250 g of AS/ha, sprayed immediately after sowing, 3 weeks, nine-level scale 1=complete damage, 9=no effect
Experimental: as §1, §2

[6] = test system: Amaranthus; test: Example B3: pre-emergence action, 250 g/ha; settings: 250 g of AS/ha, sprayed immediately after sowing, 3 weeks, nine-level scale 1=complete damage, 9=no effect
Experimental: as §1, §2

[7] = test system: Chenopodium; test: Example B4: post-emergence action, 250 g/ha; settings: 250 g of AS/ha, sprayed in the 2-3-leaf stage, 0.2% X77, 3 weeks, nine-level scale 1=complete damage, 9=no effect
Experimental: (§3) Monocotyledonous and dicotyledonous test plants are sown in pots in standard soil. In the 2-3- leaf stage of the test plants, the test substances are sprayed on (500 l of spray liquor/ha) as an aqueous suspension, prepared from a wettable powder WP10 according to the desired dosage (250 g of a.i./ha). 0.2% of X77 is added as wetting agent to the spray liquor. The test plants are then grown under optimum conditions in a greenhouse.
(§4) After a test period of 3 weeks, the test is evaluated with a nine4evel scale of ratings (1=complete damage, 9=no effect). Ratings of 1 to 4 (in particular 1 to 3) mean good to very good herbicidal action, 7-9 mean good tolerance.

[8] = test system: Sida; test: Example B4: post-emergence action, 250 g/ha; settings: 250 g of AS/ha, sprayed in the 2-3-leaf stage, 0.2% X77, 3 weeks, nine-level scale 1=complete damage, 9=no effect
Experimental: as §3, §4

[9] = test system: Abutilon; test: Example B4: post-emergence action, 250 g/ha; settings: 250 g of AS/ha, sprayed in the 2-3-leaf stage, 0.2% X77, 3 weeks, nine-level scale 1=complete damage, 9=no effect
Experimental: as §3, §4

[10] = test system: Stellaria; test: Example B4: post-emergence action, 250 g/ha; settings: 250 g of AS/ha, sprayed in the 2-3-leaf stage, 0.2% X77, 3 weeks, nine-level scale 1=complete damage, 9=no effect
Experimental: as §3, §4

[11] = test system: Kochia; test: Example B4: post-emergence action, 250 g/ha; settings: 250 g of AS/ha, sprayed in the 2-3-leaf stage, 0.2% X77, 3 weeks, nine-level scale 1=complete damage, 9=no effect
Experimental: as §3, §4

[12] = test system: Amaranthus; test: Example B4: post-emergence action, 250 g/ha; settings: 250 g of AS/ha, sprayed in the 2-3-leaf stage, 0.2% X77, 3 weeks, nine-level scale 1=complete damage, 9=no effect
Experimental: as §3, §4

For `CS(=O)(=O)c1ccc(C(=O)C2=C(O)C3CCC(C3)C2=O)c(C(F)(F)F)n1` (stereo not drawn) [Compound 1.339], the “Pre-emergence action: Chenopodium (rating)” value [1] was 1, the “Pre-emergence action: Sida (rating)” value [2] was 2 and the “Pre-emergence action: Abutilon (rating)” value [3] was 2. For the same compound, the “Pre-emergence action: Stellaria (rating)” value [4] was 1, the “Pre-emergence action: Kochia (rating)” value [5] was 7 and the “Pre-emergence action: Amaranthus (rating)” value [6] was 1. For the same compound, the “Post-emergence action: Chenopodium (rating)” value [7] was 3, the “Post-emergence action: Sida (rating)” value [8] was 4 and the “Post-emergence action: Abutilon (rating)” value [9] was 2. For the same compound, the “Post-emergence action: Stellaria (rating)” value [10] was 3, the “Post-emergence action: Kochia (rating)” value [11] was 1 and the “Post-emergence action: Amaranthus (rating)” value [12] was 2.
`COc1ccc(C(=O)C2=C(O)C3CCC(C3)C2=O)c(C(F)(F)F)n1` (stereo not drawn) [Compound 1.347] was tested, and the “Pre-emergence action: Chenopodium (rating)” value [1] was 1, the “Pre-emergence action: Sida (rating)” value [2] was 4 and the “Pre-emergence action: Abutilon (rating)” value [3] was 2. The “Pre-emergence action: Stellaria (rating)” value [4] was 1, the “Pre-emergence action: Kochia (rating)” value [5] was 1 and the “Pre-emergence action: Amaranthus (rating)” value [6] was 2. For the same compound, the “Post-emergence action: Chenopodium (rating)” value [7] was 2, the “Post-emergence action: Sida (rating)” value [8] was 3 and the “Post-emergence action: Abutilon (rating)” value [9] was 3. The “Post-emergence action: Stellaria (rating)” value [10] was 3, the “Post-emergence action: Kochia (rating)” value [11] was 2 and the “Post-emergence action: Amaranthus (rating)” value [12] was 2.
`O=C(C1=C(O)C2CCC(C2)C1=O)c1ccc(OCC(F)(F)F)nc1C(F)(F)F` (stereo not drawn) [Compound 1.349] was tested, and the “Pre-emergence action: Chenopodium (rating)” value [1] was 1, the “Pre-emergence action: Sida (rating)” value [2] was 2 and the “Pre-emergence action: Abutilon (rating)” value [3] was 1. The “Pre-emergence action: Stellaria (rating)” value [4] was 5, the “Pre-emergence action: Kochia (rating)” value [5] was 4 and the “Pre-emergence action: Amaranthus (rating)” value [6] was 3. The “Post-emergence action: Chenopodium (rating)” value [7] was 2, the “Post-emergence action: Sida (rating)” value [8] was 2 and the “Post-emergence action: Abutilon (rating)” value [9] was 2. For the same compound, the “Post-emergence action: Stellaria (rating)” value [10] was 3, the “Post-emergence action: Kochia (rating)” value [11] was 2 and the “Post-emergence action: Amaranthus (rating)” value [12] was 2.
In the case of `O=C(C1=C(O)C2CCC(C2)C1=O)c1ccc(Cl)nc1C(F)(F)F` (stereo not drawn) [Compound 1.355], the “Pre-emergence action: Chenopodium (rating)” value [1] is reported as 1, the “Pre-emergence action: Sida (rating)” value [2] is reported as 2 and the “Pre-emergence action: Abutilon (rating)” value [3] is reported as 1. The “Pre-emergence action: Stellaria (rating)” value [4] was 2, the “Pre-emergence action: Kochia (rating)” value [5] was 1 and the “Pre-emergence action: Amaranthus (rating)” value [6] was 1. The “Post-emergence action: Chenopodium (rating)” value [7] was 2, the “Post-emergence action: Sida (rating)” value [8] was 2 and the “Post-emergence action: Abutilon (rating)” value [9] was 2. For the same compound, the “Post-emergence action: Stellaria (rating)” value [10] was 3, the “Post-emergence action: Kochia (rating)” value [11] was 3 and the “Post-emergence action: Amaranthus (rating)” value [12] was 2.
In the case of `CCSc1ccc(C(=O)C2=C(O)C3CCC(C3)C2=O)c(C(F)(F)F)n1` (stereo not drawn) [Compound 1.341], the “Pre-emergence action: Chenopodium (rating)” value [1] is reported as 1, the “Pre-emergence action: Sida (rating)” value [2] is reported as 4 and the “Pre-emergence action: Abutilon (rating)” value [3] is reported as 3. The “Pre-emergence action: Stellaria (rating)” value [4] was 1, the “Pre-emergence action: Kochia (rating)” value [5] was 9 and the “Pre-emergence action: Amaranthus (rating)” value [6] was 9. The “Post-emergence action: Chenopodium (rating)” value [7] was 3, the “Post-emergence action: Sida (rating)” value [8] was 5 and the “Post-emergence action: Abutilon (rating)” value [9] was 5. The “Post-emergence action: Stellaria (rating)” value [10] was 4, the “Post-emergence action: Kochia (rating)” value [11] was 4 and the “Post-emergence action: Amaranthus (rating)” value [12] was 2.
With `CC[S+]([O-])c1ccc(C(=O)C2=C(O)C3CCC(C3)C2=O)c(C(F)(F)F)n1` (stereo not drawn) [Compound 1.343] the “Pre-emergence action: Chenopodium (rating)” value [1] was 1, the “Pre-emergence action: Sida (rating)” value [2] was 3 and the “Pre-emergence action: Abutilon (rating)” value [3] was 1. For the same compound, the “Pre-emergence action: Stellaria (rating)” value [4] was 5, the “Pre-emergence action: Kochia (rating)” value [5] was 9 and the “Pre-emergence action: Amaranthus (rating)” value [6] was 4. For the same compound, the “Post-emergence action: Chenopodium (rating)” value [7] was 2, the “Post-emergence action: Sida (rating)” value [8] was 9 and the “Post-emergence action: Abutilon (rating)” value [9] was 3. For the same compound, the “Post-emergence action: Stellaria (rating)” value [10] was 3, the “Post-emergence action: Kochia (rating)” value [11] was 3 and the “Post-emergence action: Amaranthus (rating)” value [12] was 2.
